Assay results reported in US12661410B2, “Compounds for targeted degradation of RET” (C4 Therapeutics, Inc., priority 2020, dated 2026).
Numbering of substitutions follows the chain as printed. Like-named read-outs stand apart in the source and are kept apart here.

Tests used:
[1] = molecular target: T1, RET(KD: 658-1114 G810R) (Homo sapiens, UniProt P07949, G810R); experiment: HiBiT-Degradation, RET G810R degradation assay (Nano-Glo HiBiT Lytic), 293T.165 cells; assay type: cell-based; details: for Emax / DC50: 6.0 hours
T1 construct: 658-1114; expressed in transfected cells; host or cells: 293T.165 (293T cells, generated in-house)
T1 sequence (P07949 658-1114 G810R): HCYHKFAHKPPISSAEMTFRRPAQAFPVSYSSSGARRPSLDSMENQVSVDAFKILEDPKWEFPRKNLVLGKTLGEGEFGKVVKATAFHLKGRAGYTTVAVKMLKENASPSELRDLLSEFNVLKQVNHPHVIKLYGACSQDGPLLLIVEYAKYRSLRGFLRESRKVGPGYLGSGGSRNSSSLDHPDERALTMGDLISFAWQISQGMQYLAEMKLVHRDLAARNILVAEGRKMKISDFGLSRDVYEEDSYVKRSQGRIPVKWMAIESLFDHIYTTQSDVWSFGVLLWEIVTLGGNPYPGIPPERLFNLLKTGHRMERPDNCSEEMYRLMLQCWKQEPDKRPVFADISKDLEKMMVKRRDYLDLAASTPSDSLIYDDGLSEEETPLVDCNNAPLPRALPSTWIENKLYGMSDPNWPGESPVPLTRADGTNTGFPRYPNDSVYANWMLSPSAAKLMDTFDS
Outline: (§1)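 Engineered 293T cells carry a HiBiT tag on the RET kinase domain, either wild type (line 293T.144) or G810R (line 293T.165). Compounds act for 6 h across a 10 μM-top, half-log 11-point range. Lytic HiBiT luminescence gives remaining protein, fitted for DC50 and Emax.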

[2] = molecular target: T2, RET (658-1114) (Homo sapiens, UniProt P07949); experiment: HiBiT-Degradation, RET wild-type degradation assay (Nano-Glo HiBiT Lytic), 293T.144 cells; assay type: cell-based; details: for DC50 / Emax: 6.0 hours
T2 construct: 658-1114; expressed in transfected cells; host or cells: 293T.144 (293T cells, generated in-house)
T2 sequence (P07949 658-1114): T1 sequence (P07949 658-1114 G810R) with R153G
Outline: as §1

[3] = % remaining protein, read-out: 293T.165 RET(KD: 658-1114 G810R) 6.0 hours (Emax)
[4] = half-maximal degradation concentration, read-out: 293T.165 RET(KD: 658-1114 G810R) 6.0 hours (DC50)
[5] = RET G810R, read-out: HiBiT-Degradation 293T.165 RET(KD: 658-1114 G810R) 6.0 hours (DC50)
[6] = RET G810R, read-out: HiBiT-Degradation 293T.165 RET(KD: 658-1114 G810R) 6.0 hours (Emax)
[7] = RET wild-type, read-out: HiBiT-Degradation 293T.144 RET (658-1114) 6.0 hours (DC50)
[8] = RET wild-type, read-out: HiBiT-Degradation 293T.144 RET (658-1114) 6.0 hours (Emax)
[9] = % remaining protein, read-out: 293T.144 RET (658-1114) 6.0 hours (Emax)
[10] = half-maximal degradation concentration, read-out: 293T.144 RET (658-1114) 6.0 hours (DC50)

Row | Emax [1, 3] [%] | DC50 [1, 4] [nM] | HiBiT-Degradation 293T.165 RET(KD: 658-1114 G810R) 6.0 hours (IP) [nM] ([1]; RET G810R) | DC50 [1, 5] [nM] | Emax [1, 6] [%] | HiBiT-Degradation 293T.144 RET (658-1114) 6.0 hours (IP) [nM] ([2]; RET wild-type) | DC50 [2, 7] [nM] | Emax [2, 8] [%] | 293T.165 RET(KD: 658-1114 G810R) 6.0 hours (IP) [nM] [1] | 293T.144 RET (658-1114) 6.0 hours (IP) [nM] [2] | Emax [2, 9] [%] | DC50 [2, 10] [nM] | SMILES
1 | < 50 | < 100 | ++++ (< 50 nM = ++++) | < 100 | < 50 | ++++ (< 50 nM = ++++) | < 50 | < 30 | – | – | – | – | N#Cc1cnn2cc(-c3ccc(N4CCN(C(=O)CN5CCC(c6ccc(NC7CCC(=O)NC7=O)cc6F)CC5)CC4)nc3)cc(-c3ccc(N4CCN(Cc5ccccn5)CC4)nc3)c12 (stereo not shown) [Compound 67, 6-[6-[4-[2-[4-[4-[(2,6-dioxo-3-piperidyl)amino]-2-fluoro-phenyl]-1-piperidyl]acetyl]piperazin-1-yl]-3-pyridyl]-4-[6-[4-(2-pyridylmethyl)piperazin-1-yl]-3-pyridyl]pyrazolo[1,5-a]pyridine-3-carbonitrile]
2 | < 30 | < 50 | – | – | – | – | – | – | ++++ (<50 nM = ++++) | ++++ (<50 nM = ++++) | < 30 | < 50 | COc1ccc(NC2CCN(c3ccc(-c4nc(-c5cnn([C@H]6CC[C@@H](N7CCN(c8c(F)cc(NC9CCC(=O)NC9=O)cc8F)CC7)CC6)c5)cn5ncc(C#N)c45)cn3)CC2)cn1 (single isomer, unassigned) [Compound 203, 6-(1-((1s, 4s)-4-(4-(4-((2,6-Dioxopiperidin-3-yl)amino)-2,6-difluorophenyl)piperazin-1-yl)cyclohexyl)-1H-pyrazol-4-yl)-4-(6-(4-((6-methoxypyridin-3-yl)amino)piperidin-1-yl)pyridin-3-yl)pyrazolo[1,5-a]pyrazine-3-carbonitrile]
3 | < 30 | < 50 | – | – | – | – | – | – | ++++ (<50 nM = ++++) | ++++ (<50 nM = ++++) | < 30 | < 50 | N#Cc1cnn2cc(-c3cnn([C@H]4CC[C@H](N5CCN(c6c(F)cc(N[C@@H]7CCC(=O)NC7=O)cc6F)CC5)CC4)c3)nc(-c3ccc(N4CCC5(CC4)OCc4cccnc45)nc3)c12 (racemic) [Compound 218, 6-[1-[4-[4-[2,6-difluoro-4-[[rac-(3R)-2,6-dioxo-3-piperidyl]amino]phenyl]piperazin-1-yl]cyclohexyl]pyrazol-4-yl]-4-(6-spiro[5H-furo[3,4-b]pyridine-7,4′-piperidine]-1′-yl-3-pyridyl)pyrazolo[1,5-a]pyrazine-3-carbonitrile]
4 | < 50 | < 100 | ++++ (< 50 nM = ++++) | < 100 | < 50 | ++++ (< 50 nM = ++++) | < 50 | < 30 | – | – | – | – | CCC1(C(=O)NC(C)C)CCN(c2ccc(-c3nc(-c4cnn(C5CCN(C(=O)CC6(O)CCN(c7ccc(NC8CCC(=O)NC8=O)c(F)c7)CC6)CC5)c4)cn4ncc(C#N)c34)cn2)CC1 (stereo not shown) [Compound 69, 1-[5-[3-cyano-6-[1-[1-[2-[1-[4-[(2,6-dioxo-3-piperidyl)amino]-3-fluoro-phenyl]-4-hydroxy-4-piperidyl]acetyl]-4-piperidyl]pyrazol-4-yl]pyrazolo[1,5-a]pyrazin-4-yl]-2-pyridyl]-4-ethyl-N-isopropyl-piperidine-4-carboxamide]

Row | SMILES | Emax [1, 3] [%] | DC50 [1, 4] [nM] | HiBiT-Degradation 293T.165 RET(KD: 658-1114 G810R) 6.0 hours (IP) [nM] ([1]; RET G810R) | DC50 [1, 5] [nM] | Emax [1, 6] [%] | HiBiT-Degradation 293T.144 RET (658-1114) 6.0 hours (IP) [nM] ([2]; RET wild-type) | DC50 [2, 7] [nM] | Emax [2, 8] [%] | 293T.165 RET(KD: 658-1114 G810R) 6.0 hours (IP) [nM] [1] | 293T.144 RET (658-1114) 6.0 hours (IP) [nM] [2] | Emax [2, 9] [%] | DC50 [2, 10] [nM]
5 | COc1ccc(CN2C3CC2CN(c2ccc(-c4nc(-c5cnn([C@H]6CC[C@H](N7CCN(c8cc(OC)c(NC9CCC(=O)NC9=O)cc8F)CC7)CC6)c5)cn5ncc(C#N)c45)cn2)C3)cn1 (relative stereo) [Compound 167, 6-[1-[4-[4-[4-[(2,6-dioxo-3-piperidyl)amino]-2-fluoro-5-methoxy-phenyl]piperazin-1-yl]cyclohexyl]pyrazol-4-yl]-4-[6-[6-[(6-methoxy-3-pyridyl)methyl]-3,6-diazabicyclo[3.1.1]heptan-3-yl]-3-pyridyl]pyrazolo[1,5-a]pyrazine-3-carbonitrile] | < 30 | < 50 | – | – | – | – | – | – | ++++ (<50 nM = ++++) | ++++ (<50 nM = ++++) | < 30 | < 50
